Test results reported in the supplement of paper PMC10307832.

What was measured:
Assay in all cases: relative viability (nuclei count vs DMSO), 5 days (fraction); higher = more cells survive
LCLC-97TM1 = tested on: LCLC-97TM1
Method in brief: (§1)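 Relative viability was taken as the ratio of nuclei in treated wells to nuclei in vehicle wells. Lung cancer cell lines in 1536-well plates received compounds by pin tool one day after seeding, either one drug alone or a fixed anchor-drug dose plus five library-drug doses (not always all listed) in √10 steps. Nuclei were counted on 4× images after 5 days of treatment, and values are medians of duplicate plates.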

HCC-15 = tested on: HCC-15
Method in brief: as §1

NCI-H1734 = tested on: NCI-H1734
Method in brief: as §1

ChaGo-K-1 = tested on: ChaGo-K-1
Method in brief: as §1

NCI-H2009 = tested on: NCI-H2009
Method in brief: as §1

NCI-H441 = tested on: NCI-H441
Method in brief: as §1

NCI-H460 = tested on: NCI-H460
Method in brief: as §1

COR-L23 = tested on: COR-L23
Method in brief: as §1

RERF-LC-KJ = tested on: RERF-LC-KJ
Method in brief: as §1

LOU-NH91 = tested on: LOU-NH91
Method in brief: as §1

NCI-H2023 = tested on: NCI-H2023
Method in brief: as §1

NCI-H2126 = tested on: NCI-H2126
Method in brief: as §1

201T = tested on: 201T
Method in brief: as §1

HCC-44 = tested on: HCC-44
Method in brief: as §1

NCI-H1993 = tested on: NCI-H1993
Method in brief: as §1

HCC-78 = tested on: HCC-78
Method in brief: as §1

A-427 = tested on: A-427
Method in brief: as §1

SW 1573 = tested on: SW 1573
Method in brief: as §1

HCC-366 = tested on: HCC-366
Method in brief: as §1

HARA = tested on: HARA
Method in brief: as §1

NCI-H650 = tested on: NCI-H650
Method in brief: as §1

NCI-H1650 = tested on: NCI-H1650
Method in brief: as §1

LCLC-103H = tested on: LCLC-103H
Method in brief: as §1

SMILES: Cc1cnc(-c2cnc(NCCNc3ccc(C#N)cn3)nc2-c2ccc(Cl)cc2Cl)[nH]1 + Nc1ncn([C@H]2C[C@H](O)[C@@H](CO)O2)c(=O)n1 [Decitabine] (partner 2 µM)
- relative viability (LCLC-97TM1; first compound 0.08 µM): 0.213
- relative viability (LCLC-97TM1; first compound 0.253 µM): 0.248
- relative viability (LCLC-97TM1; first compound 0.8 µM): 0.235
- relative viability (LCLC-97TM1; first compound 2.53 µM): 0.227
- relative viability (HCC-15; first compound 0.08 µM): 0.701
- relative viability (HCC-15; first compound 0.253 µM): 0.588
- relative viability (HCC-15; first compound 0.8 µM): 0.756
- relative viability (HCC-15; first compound 2.53 µM): 0.704
- relative viability (NCI-H1734; first compound 0.08 µM): 0.514
- relative viability (NCI-H1734; first compound 0.253 µM): 0.453
- relative viability (NCI-H1734; first compound 0.8 µM): 0.544
- relative viability (NCI-H1734; first compound 2.53 µM): 0.567
- relative viability (ChaGo-K-1; first compound 0.08 µM): 0.546
- relative viability (ChaGo-K-1; first compound 0.253 µM): 0.485
- relative viability (ChaGo-K-1; first compound 0.8 µM): 0.499
- relative viability (ChaGo-K-1; first compound 2.53 µM): 0.466
- relative viability (NCI-H2009; first compound 0.08 µM): 0.426
- relative viability (NCI-H2009; first compound 0.253 µM): 0.37
- relative viability (NCI-H2009; first compound 0.8 µM): 0.404
- relative viability (NCI-H2009; first compound 2.53 µM): 0.395
- relative viability (NCI-H441; first compound 0.08 µM): 0.238
- relative viability (NCI-H441; first compound 0.8 µM): 0.251
- relative viability (NCI-H441; first compound 2.53 µM): 0.255
- relative viability (NCI-H460; first compound 0.08 µM): 0.537
- relative viability (NCI-H460; first compound 0.253 µM): 0.454
- relative viability (NCI-H460; first compound 0.8 µM): 0.54
- relative viability (NCI-H460; first compound 2.53 µM): 0.488
- relative viability (COR-L23; first compound 0.08 µM): 0.521
- relative viability (COR-L23; first compound 0.253 µM): 0.367
- relative viability (COR-L23; first compound 0.8 µM): 0.521
- relative viability (COR-L23; first compound 2.53 µM): 0.548
- relative viability (RERF-LC-KJ; first compound 0.08 µM): 0.713
- relative viability (RERF-LC-KJ; first compound 0.253 µM): 0.702
- relative viability (RERF-LC-KJ; first compound 0.8 µM): 0.66
- relative viability (RERF-LC-KJ; first compound 2.53 µM): 0.599
- relative viability (LOU-NH91; first compound 0.08 µM): 0.818
- relative viability (LOU-NH91; first compound 0.253 µM): 0.799
- relative viability (LOU-NH91; first compound 0.8 µM): 0.852
- relative viability (LOU-NH91; first compound 2.53 µM): 0.802
- relative viability (NCI-H2023; first compound 0.08 µM): 0.232
- relative viability (NCI-H2023; first compound 0.253 µM): 0.195
- relative viability (NCI-H2023; first compound 0.8 µM): 0.241
- relative viability (NCI-H2023; first compound 2.53 µM): 0.228
- relative viability (NCI-H2126; first compound 0.08 µM): 0.585
- relative viability (NCI-H2126; first compound 0.253 µM): 0.602
- relative viability (NCI-H2126; first compound 0.8 µM): 0.539
- relative viability (NCI-H2126; first compound 2.53 µM): 0.58
- relative viability (201T; first compound 0.08 µM): 0.817
- relative viability (201T; first compound 0.8 µM): 0.828
- relative viability (201T; first compound 2.53 µM): 0.849
- relative viability (HCC-44; first compound 0.08 µM): 0.846
- relative viability (HCC-44; first compound 0.253 µM): 0.561
- relative viability (HCC-44; first compound 0.8 µM): 0.925
- relative viability (HCC-44; first compound 2.53 µM): 1.02
- relative viability (NCI-H1993; first compound 0.08 µM): 0.744
- relative viability (NCI-H1993; first compound 0.253 µM): 0.584
- relative viability (NCI-H1993; first compound 0.8 µM): 0.628
- relative viability (NCI-H1993; first compound 2.53 µM): 0.591
- relative viability (HCC-78; first compound 0.08 µM): 0.692
- relative viability (HCC-78; first compound 0.253 µM): 0.507
- relative viability (HCC-78; first compound 0.8 µM): 0.767
- relative viability (HCC-78; first compound 2.53 µM): 0.731
- relative viability (A-427; first compound 0.08 µM): 0.535
- relative viability (A-427; first compound 0.253 µM): 0.526
- relative viability (A-427; first compound 0.8 µM): 0.61
- relative viability (A-427; first compound 2.53 µM): 0.618
- relative viability (SW 1573; first compound 0.08 µM): 0.583
- relative viability (SW 1573; first compound 0.253 µM): 0.457
- relative viability (SW 1573; first compound 0.8 µM): 0.474
- relative viability (SW 1573; first compound 2.53 µM): 0.354
- relative viability (HCC-366; first compound 0.08 µM): 0.372
- relative viability (HCC-366; first compound 0.253 µM): 0.318
- relative viability (HCC-366; first compound 0.8 µM): 0.288
- relative viability (HCC-366; first compound 2.53 µM): 0.335
- relative viability (HARA; first compound 0.08 µM): 0.654
- relative viability (HARA; first compound 0.253 µM): 0.471
- relative viability (HARA; first compound 0.8 µM): 0.553
- relative viability (HARA; first compound 2.53 µM): 0.642
- relative viability (NCI-H650; first compound 0.08 µM): 0.356
- relative viability (NCI-H650; first compound 0.253 µM): 0.339
- relative viability (NCI-H650; first compound 0.8 µM): 0.302
- relative viability (NCI-H650; first compound 2.53 µM): 0.329
- relative viability (NCI-H1650; first compound 0.08 µM): 0.478
- relative viability (NCI-H1650; first compound 0.253 µM): 0.259
- relative viability (NCI-H1650; first compound 0.8 µM): 0.397
- relative viability (NCI-H1650; first compound 2.53 µM): 0.443
- relative viability (LCLC-103H; first compound 0.08 µM): 0.732
- relative viability (LCLC-103H; first compound 0.253 µM): 0.722
- relative viability (LCLC-103H; first compound 0.8 µM): 0.751
- relative viability (LCLC-103H; first compound 2.53 µM): 0.728
